This passage reports Activity and IC50 results from ChEMBL document CHEMBL1138399, “Novel poly(ADP-ribose) polymerase-1 inhibitors” (Bioorg Med Chem Lett, 2007).

Molecules are shown by their SMILES.

The subject of assay [1] is PC-12. In words: Recovery of NAD+ in hydrogen peroxide treated PC12 cells at 1 uM relative to control. In kind it is functional, Rattus norvegicus.
Assay [2] concerns PC-12. In words: Maximum recovery of NAD+ in hydrogen peroxide treated PC12 cells at 30 uM relative to control. In kind it is functional, Rattus norvegicus.
For assay [3], the system named is PC-12. Kind of assay: Maximum recovery of NAD+ in hydrogen peroxide treated PC12 cells at 10 uM relative to control. In kind it is functional, Rattus norvegicus.
Assay [4] has as its system PC-12. Kind of assay: Maximum recovery of NAD+ in hydrogen peroxide treated PC12 cells at 3 uM relative to control. The assay is classed as functional, Rattus norvegicus.
Assay [5] concerns the target Poly [ADP-ribose] polymerase 1 (Homo sapiens, UniProt P09874). In words: Inhibition of human recombinant PARP1 in U251MG cells by CometAssay. In kind it is cell-based, U-251.

Chain of Poly [ADP-ribose] polymerase 1 (P09874 whole entry): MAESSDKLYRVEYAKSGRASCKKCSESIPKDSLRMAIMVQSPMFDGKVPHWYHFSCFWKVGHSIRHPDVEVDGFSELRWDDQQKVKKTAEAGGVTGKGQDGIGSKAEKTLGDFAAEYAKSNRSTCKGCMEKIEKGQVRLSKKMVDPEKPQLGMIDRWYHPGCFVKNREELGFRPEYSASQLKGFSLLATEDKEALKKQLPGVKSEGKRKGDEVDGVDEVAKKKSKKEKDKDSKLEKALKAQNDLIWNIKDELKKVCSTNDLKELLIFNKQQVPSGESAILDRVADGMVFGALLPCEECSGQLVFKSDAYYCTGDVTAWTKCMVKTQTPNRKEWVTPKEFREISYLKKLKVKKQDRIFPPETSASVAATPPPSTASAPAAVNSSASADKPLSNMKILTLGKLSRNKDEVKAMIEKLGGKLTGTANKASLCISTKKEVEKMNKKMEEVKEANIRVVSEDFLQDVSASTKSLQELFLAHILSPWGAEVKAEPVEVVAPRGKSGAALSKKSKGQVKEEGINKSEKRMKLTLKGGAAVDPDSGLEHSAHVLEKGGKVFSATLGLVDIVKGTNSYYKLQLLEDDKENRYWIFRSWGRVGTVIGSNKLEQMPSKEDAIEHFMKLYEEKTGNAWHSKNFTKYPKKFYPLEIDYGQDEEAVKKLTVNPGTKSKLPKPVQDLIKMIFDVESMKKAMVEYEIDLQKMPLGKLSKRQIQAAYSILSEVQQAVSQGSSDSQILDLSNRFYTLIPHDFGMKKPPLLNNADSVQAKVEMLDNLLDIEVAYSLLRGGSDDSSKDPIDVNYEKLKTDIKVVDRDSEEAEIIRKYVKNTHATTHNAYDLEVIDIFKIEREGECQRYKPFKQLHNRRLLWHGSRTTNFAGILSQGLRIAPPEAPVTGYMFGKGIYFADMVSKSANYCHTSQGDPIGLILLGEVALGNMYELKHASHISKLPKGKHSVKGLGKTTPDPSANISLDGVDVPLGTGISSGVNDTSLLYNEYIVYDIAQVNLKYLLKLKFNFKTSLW

On to `O=C1NC(=O)c2c1c1c(c3[nH]c4ccccc4c23)CCC1`, for which the Activity in the assay on PC-12 [1] was 30%.

Turning to `CC(C)(C)C(=O)OCc1nc(-c2ccc3[nH]c4c5c(c6c(c4c3c2)C(=O)NC6=O)CCC5)cs1`, the Activity is listed as 14% in the assay with PC-12 [1] and 27% in the assay with PC-12 [2].

For `CCNC(=O)NCc1nc(-c2ccc3[nH]c4c5c(c6c(c4c3c2)C(=O)NC6=O)CCC5)cs1`, the Activity with PC-12 [1] was 15%; in the assay with PC-12 [3] it was 22%.

Take `Cc1sc(N)nc1-c1ccc2[nH]c3c4c(c5c(c3c2c1)C(=O)NC5=O)CCC4`: the Activity in the assay with PC-12 [1] was determined as 37%; in the assay on PC-12 [4] it was 38%.

`CNc1nc(-c2ccc3[nH]c4c5c(c6c(c4c3c2)C(=O)NC6=O)CCC5)cs1`: the Activity is 22% with PC-12 [1] and 56% in the assay with PC-12 [2].

For the compound `O=C1NC(=O)c2c1c1c(c3[nH]c4ccc(-c5csc(-c6ccno6)n5)cc4c23)CCC1`, the half-inhibitory concentration (IC50) in assay [5] came to 66 nM. For the same compound, the Activity was determined as 11% in the assay on PC-12 [1] and 27% in the assay with PC-12 [2].

In the case of `O=C1NC(=O)c2c1c1c(c3[nH]c4ccc(-c5csc(CNC6O[C@H](CO)[C@@H](O)[C@H](O)[C@H]6O)n5)cc4c23)CCC1` (some centres not stated), the half-maximal inhibitory concentration (IC50) in assay [5] was 17 nM. For the same compound, the Activity in the assay with PC-12 [1] and with PC-12 [2] was 0% throughout.

With `CC(=O)Nc1nc(-c2ccc3[nH]c4c5c(c6c(c4c3c2)C(=O)NC6=O)CCC5)cs1`, the Activity was 10% with PC-12 [1] and 34% with PC-12 [2].

Regarding `O=C(CBr)c1ccc2[nH]c3c4c(c5c(c3c2c1)C(=O)NC5=O)CCC4`, the Activity was determined as 32% with PC-12 [1] and 49% in the assay with PC-12 [2].

For `CC(C)C(=O)NCc1nc(-c2ccc3[nH]c4c5c(c6c(c4c3c2)C(=O)NC6=O)CCC5)cs1`, the Activity in the assay with PC-12 [1] turned out to be 10%; in the assay on PC-12 [2], 33%.

In the case of `Cc1nc(-c2ccc3[nH]c4c5c(c6c(c4c3c2)C(=O)NC6=O)CCC5)cs1`, the Activity with PC-12 [1] is 19%; in the assay with PC-12 [2], 63%.

As for `Cc1nc(-c2ccc3[nH]c4c5c(c6c(c4c3c2)C(=O)NC6=O)CCC5)c(Br)s1`, the values for the Activity in the assay on PC-12 [1] and in the assay on PC-12 [2] were 16% and 57%, respectively.

Consider `CC(C)(C)OC(=O)NC(CCCc1nc(-c2ccc3[nH]c4c5c(c6c(c4c3c2)C(=O)NC6=O)CCC5)cs1)C(=O)OC(C)(C)C` (configuration not stated), for which the IC50 in assay [5] stood at 46 nM. The Activity turned out to be 17% in the assay with PC-12 [1] and 27% with PC-12 [3].

As for `CC(=O)NCc1nc(-c2ccc3[nH]c4c5c(c6c(c4c3c2)C(=O)NC6=O)CCC5)cs1`, the Activity in the assay on PC-12 [1] amounted to 20%; in the assay with PC-12 [2] it was 51%.

As for `CC(C)CC(=O)NCc1nc(-c2ccc3[nH]c4c5c(c6c(c4c3c2)C(=O)NC6=O)CCC5)cs1`, the Activity in the assay on PC-12 [1] came to 13%; in the assay with PC-12 [2], 30%.

`O=C1NC(=O)c2c1c1c(c3[nH]c4ccc(-c5csc(CNC(=O)C6CC6)n5)cc4c23)CCC1`: the Activity in the assay with PC-12 [1] is given as 11%; in the assay on PC-12 [2] it was 16%.

As for `NC(CCCc1nc(-c2ccc3[nH]c4c5c(c6c(c4c3c2)C(=O)NC6=O)CCC5)cs1)C(=O)O.O=C(O)C(F)(F)F` (configuration not stated), the IC50 in assay [5] worked out at 22 nM. Besides, the Activity with PC-12 [1] came to 7%; in the assay with PC-12 [2] it was 47%.

With `CCC(=O)NCc1nc(-c2ccc3[nH]c4c5c(c6c(c4c3c2)C(=O)NC6=O)CCC5)cs1`, the Activity is 16% in the assay on PC-12 [1] and 20% in the assay on PC-12 [2].

As for `O=C1NC(=O)c2c1c1c(c3[nH]c4ccc(-c5csc(CNC(=O)C6CCCC6)n5)cc4c23)CCC1`, the Activity in the assay on PC-12 [1] amounted to 21%; in the assay with PC-12 [2], 29%.

Regarding `NCc1ccc2[nH]c3c4c(c5c(c3c2c1)C(=O)NC5=O)CCC4`, the concentration for half-maximal inhibition (IC50) in assay [5] amounted to 18 nM. In addition, the Activity in the assay with PC-12 [1] turned out to be 84%; in the assay with PC-12 [2] it was 100%.

In the case of `CS(=O)(=O)Cc1nc(-c2ccc3[nH]c4c5c(c6c(c4c3c2)C(=O)NC6=O)CCC5)cs1`, the Activity in the assay with PC-12 [1] is listed as 16%; in the assay on PC-12 [2], 62%.

On to `CC(C)(C)S(=O)(=O)Cc1nc(-c2ccc3[nH]c4c5c(c6c(c4c3c2)C(=O)NC6=O)CCC5)cs1`, for which the Activity is 33% in the assay with PC-12 [1] and 51% with PC-12 [2].

As to `O=C(NCc1nc(-c2ccc3[nH]c4c5c(c6c(c4c3c2)C(=O)NC6=O)CCC5)cs1)OCc1ccccc1`, the Activity in the assay with PC-12 [1] came out at 17%; in the assay with PC-12 [2], 46%.

Regarding `CS(=O)(=O)NCc1nc(-c2ccc3[nH]c4c5c(c6c(c4c3c2)C(=O)NC6=O)CCC5)cs1`, the IC50 in assay [5] came out at 18 nM. The Activity with PC-12 [1] turned out to be 22%; with PC-12 [2], 28%.

Turning to `CCCCC(=O)NCc1nc(-c2ccc3[nH]c4c5c(c6c(c4c3c2)C(=O)NC6=O)CCC5)cs1`, the Activity was found to be 15% in the assay with PC-12 [1] and 34% with PC-12 [2].

With `CC(=O)c1ccc2[nH]c3c4c(c5c(c3c2c1)C(=O)NC5=O)CCC4`, the results for the Activity in the assay with PC-12 [1] and in the assay on PC-12 [2] were 35% and 57%, respectively.

`CC(C)(C)OC(=O)Cc1nc(-c2ccc3[nH]c4c5c(c6c(c4c3c2)C(=O)NC6=O)CCC5)cs1`: the Activity was 20% with PC-12 [1] and 49% with PC-12 [2].

For `CCCC(=O)NCc1nc(-c2ccc3[nH]c4c5c(c6c(c4c3c2)C(=O)NC6=O)CCC5)cs1`, the results for the Activity with PC-12 [1] and in the assay with PC-12 [2] were 19% and 29%, respectively.

Consider `Nc1nc(-c2ccc3[nH]c4c5c(c6c(c4c3c2)C(=O)NC6=O)CCC5)cs1`, for which the Activity in the assay with PC-12 [1] is 48%; with PC-12 [2], 100%.

Take `N=C(N)Nc1nc(-c2ccc3[nH]c4c5c(c6c(c4c3c2)C(=O)NC6=O)CCC5)cs1`: the Activity in the assay on PC-12 [1] is reported as 19%; in the assay with PC-12 [2], 53%.

For `Br.NCc1nc(-c2ccc3[nH]c4c5c(c6c(c4c3c2)C(=O)NC6=O)CCC5)cs1`, the Activity was 20% in the assay with PC-12 [1] and 41% with PC-12 [3].
